The subject of one data set is formalin-induced pain. Put plainly: Formalin test (formalin-induced nociception). The data set is classed as in vivo, mice. How it is done:
All experiments were conducted following the protocol approved by the Institutional Animal Care and Use Committee (protocol #M09130) and all efforts were made to minimize animal suffering. Male mice of C57BL/6J strain weighing 25~30 g, 10 weeks old were used. Animals were housed at a maximum number of five per cage (30 × 20 × 15 cm) with food and water ad libitum. They were kept in 12 h light/dark cycles (lights on at 7:00 a.m.) at a temperature of 23 ± 1°C. All manipulations were carried out between 11:00 am and 3:00 pm. […] Control animals received the same vehicle used to dilute the compounds. When drugs were delivered by intraperitoneal (i.p.) route, a constant volume of 10 ml/kg body weight was injected. When drugs were administered by intrathecal (i.t.) or intraplantar (i.pl.) routes, respectively volumes of 5 μl or 20 μl were injected. Appropriate vehicle-treated groups were also assessed simultaneously.
The formalin test is a widely used model that allows us to evaluate two different types of pain: neurogenic pain (phase 1) is caused by direct activation of nociceptive nerve terminals, while inflammatory pain (phase 2) is mediated by a combination of peripheral input and spinal cord sensitization. Animals received 20 μl of a formalin solution (1.25%) made up in PBS injected intraplantarly (i.pl.) in the ventral surface of the right hindpaw. Following i.pl. injection of formalin, the animals were immediately placed individually into observation chambers and the time spent licking or biting the injected paw was be recorded and considered as nociceptive response. We observed animals individually from 0-5 min (neurogenic phase) and 15-30 min (inflammatory phase).
Intrathecal injections were given to fully conscious mice using the method previously described by Hylden and Wilcox. Briefly, the animals were manually restrained, and a 30-gauge needle connected by a polyethylene tube to a 25 μl Hamilton syringe (Hamilton, Birmingham, UK) was inserted through the skin and between the vertebrae into the […] space of the L5-L6 spinal segments. Intrathecal injections were given over a period of 5 seconds.

The target of another data set is T1, Cav3.2 (Homo sapiens, UniProt O95180).
T1 construct: expressed in transfected cells; host or cells: tsA-201 cells, transient calcium phosphate transfection
T1 sequence (O95180 whole entry): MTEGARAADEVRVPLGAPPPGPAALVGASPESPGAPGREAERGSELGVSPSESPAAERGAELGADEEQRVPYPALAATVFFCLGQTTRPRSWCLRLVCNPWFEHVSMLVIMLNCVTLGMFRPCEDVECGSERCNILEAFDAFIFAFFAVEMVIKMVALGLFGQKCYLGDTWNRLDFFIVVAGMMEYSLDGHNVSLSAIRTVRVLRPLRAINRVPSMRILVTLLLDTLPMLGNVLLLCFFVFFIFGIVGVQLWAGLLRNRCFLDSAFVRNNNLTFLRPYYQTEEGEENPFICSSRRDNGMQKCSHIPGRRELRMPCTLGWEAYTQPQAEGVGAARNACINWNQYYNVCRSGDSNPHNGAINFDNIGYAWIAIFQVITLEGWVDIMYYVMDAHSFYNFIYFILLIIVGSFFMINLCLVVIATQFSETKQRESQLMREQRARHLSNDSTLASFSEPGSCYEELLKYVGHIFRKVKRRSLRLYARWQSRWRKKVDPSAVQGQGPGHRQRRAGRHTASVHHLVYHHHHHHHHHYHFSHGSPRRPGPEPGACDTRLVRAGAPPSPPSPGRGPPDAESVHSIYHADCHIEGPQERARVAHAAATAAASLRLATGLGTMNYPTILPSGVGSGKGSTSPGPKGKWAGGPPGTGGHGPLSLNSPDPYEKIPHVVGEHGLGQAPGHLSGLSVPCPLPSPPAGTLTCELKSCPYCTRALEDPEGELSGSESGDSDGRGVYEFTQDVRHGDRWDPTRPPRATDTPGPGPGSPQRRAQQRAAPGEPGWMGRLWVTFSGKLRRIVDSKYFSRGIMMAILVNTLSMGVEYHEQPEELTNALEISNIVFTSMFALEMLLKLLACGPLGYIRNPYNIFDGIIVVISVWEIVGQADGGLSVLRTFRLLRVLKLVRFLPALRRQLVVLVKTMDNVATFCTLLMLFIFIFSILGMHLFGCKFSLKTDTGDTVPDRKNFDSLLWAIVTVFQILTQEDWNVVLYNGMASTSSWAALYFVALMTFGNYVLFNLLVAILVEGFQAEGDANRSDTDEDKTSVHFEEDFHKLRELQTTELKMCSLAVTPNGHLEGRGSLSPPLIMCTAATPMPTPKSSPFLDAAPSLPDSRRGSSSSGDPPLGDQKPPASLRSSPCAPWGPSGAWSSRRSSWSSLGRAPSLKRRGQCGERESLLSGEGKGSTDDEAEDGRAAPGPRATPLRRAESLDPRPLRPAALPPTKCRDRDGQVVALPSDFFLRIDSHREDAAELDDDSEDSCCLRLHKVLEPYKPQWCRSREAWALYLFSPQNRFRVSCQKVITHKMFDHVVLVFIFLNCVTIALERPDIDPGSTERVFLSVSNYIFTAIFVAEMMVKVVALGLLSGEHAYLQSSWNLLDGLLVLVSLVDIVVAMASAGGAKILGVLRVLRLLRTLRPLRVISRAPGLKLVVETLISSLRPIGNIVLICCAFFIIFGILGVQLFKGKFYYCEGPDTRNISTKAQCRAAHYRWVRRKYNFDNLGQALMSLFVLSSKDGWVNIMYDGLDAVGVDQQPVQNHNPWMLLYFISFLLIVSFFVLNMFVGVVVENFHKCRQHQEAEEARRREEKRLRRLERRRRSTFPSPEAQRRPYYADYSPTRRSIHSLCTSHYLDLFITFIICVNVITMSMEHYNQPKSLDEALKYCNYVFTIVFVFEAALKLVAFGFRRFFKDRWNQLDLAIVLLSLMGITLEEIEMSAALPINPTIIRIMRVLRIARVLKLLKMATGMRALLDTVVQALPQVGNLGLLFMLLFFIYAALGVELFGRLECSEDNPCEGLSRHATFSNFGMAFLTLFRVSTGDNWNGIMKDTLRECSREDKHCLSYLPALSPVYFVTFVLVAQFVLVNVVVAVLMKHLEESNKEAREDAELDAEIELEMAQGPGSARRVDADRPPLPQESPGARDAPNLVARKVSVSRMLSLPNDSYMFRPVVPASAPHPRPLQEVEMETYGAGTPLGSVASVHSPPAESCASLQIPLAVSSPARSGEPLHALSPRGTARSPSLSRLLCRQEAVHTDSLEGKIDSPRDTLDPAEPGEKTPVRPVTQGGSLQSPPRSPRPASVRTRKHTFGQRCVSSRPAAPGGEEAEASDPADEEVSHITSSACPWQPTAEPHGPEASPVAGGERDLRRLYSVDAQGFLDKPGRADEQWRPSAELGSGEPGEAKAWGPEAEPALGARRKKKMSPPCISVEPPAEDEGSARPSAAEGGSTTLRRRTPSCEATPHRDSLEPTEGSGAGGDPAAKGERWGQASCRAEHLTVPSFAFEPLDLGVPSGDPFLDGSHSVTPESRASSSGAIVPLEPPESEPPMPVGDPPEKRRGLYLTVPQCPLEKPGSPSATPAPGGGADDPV
Put plainly: Whole-cell patch-clamp on Cav3.2: concentration-response and steady-state inactivation. As to conditions: 10 μM. The data set is classed as cell-based. How it is done:
To further characterize compounds NMP-4, NMP-7 and NMP-144, we investigated the concentration dependence of their action on Cav3.2, the major T-type calcium channel subtype implicated in the afferent pain pathway (Figure 2B, C).
To determine whether these compounds also affected inactivated channels, we recorded steady-state inactivation curves prior and after application of NMP-4, NMP-7 or NMP-144.
Whole-cell currents were recorded from tsa-201 cells 2-4 days after transfection. The external recording solution contained (in mM): BaCl2 (20), MgCl2 (1), HEPES (10), TEA-Cl (40), CsCl (65), d-glucose (10) and pH 7.2 adjusted with TEA-OH. The internal pipette solution was composed of (in mM) Cs-methanesulfonate (108), MgCl2 (4), EGTA (9), HEPES (9) and pH 7.2 adjusted with CsOH. The internal solution was supplemented with 0.6 mM GTP (sodium salt) and 2 mM ATP (tris salt), which were added directly to the internal solution immediately prior to use. Pipettes with a resistance of 2~5 MΩ when filled with internal solution were used for recording. Currents were elicited from a holding potential of -100 mV and were measured by conventional whole-cell patch clamp using an Axopatch 200B amplifier in combination with Clampex 9.2 software (Axon Instruments, Foster City, CA). Data were filtered at 1 kHz (8-pole Bessel) and digitized at 10 kHz with a Digidata 1320 (Axon Instruments, Foster City, CA). Series resistance were compensated by 85% in all experiments. An online P/4 programme was used to subtract the leak currents. Drugs were dissolved in DMSO at the following stock concentrations: 20 mM for NMP-4 and NMP-7, and 10 mM for NMP-139, NMP-140, NMP-141 and NMP-144. Prior to the experiment, drugs were diluted into external recording solution with a final DMSO concentration no higher than 0.3%. DMSO was also included in the control solution. Drug delivery was controlled by a Valvelink8.2 fast perfusion system (Automate Scientific Inc., Berkeley, CA). The perfusion tip was positioned a few hundred microns from the cell and kept as constant as possible throughout the experiments. Electrophysiological data were analyzed using Clampfit 9.2 (Axon Instruments, Foster City, CA) and GraphPad Prism 5 software (GraphPad Software Inc., San Diego, CA). […] Steady-state inactivation curves were fitted using the Boltzmann equation: I = 1/(1 + e ^(V-Vh)/k), where Vh is the half inactivating potential and k is the slope factor.
(In general: Patch clamp records ionic current or voltage across a cell membrane.)

For the next data set, the target named is Human CB1 (Homo sapiens, UniProt P21554). Put plainly: GTPγ[35S] functional assay, CHO cell membrane extracts. The arrangement: Emax: dose or concentration left out as unconfirmed.
Human CB1, sequence (P21554 whole entry): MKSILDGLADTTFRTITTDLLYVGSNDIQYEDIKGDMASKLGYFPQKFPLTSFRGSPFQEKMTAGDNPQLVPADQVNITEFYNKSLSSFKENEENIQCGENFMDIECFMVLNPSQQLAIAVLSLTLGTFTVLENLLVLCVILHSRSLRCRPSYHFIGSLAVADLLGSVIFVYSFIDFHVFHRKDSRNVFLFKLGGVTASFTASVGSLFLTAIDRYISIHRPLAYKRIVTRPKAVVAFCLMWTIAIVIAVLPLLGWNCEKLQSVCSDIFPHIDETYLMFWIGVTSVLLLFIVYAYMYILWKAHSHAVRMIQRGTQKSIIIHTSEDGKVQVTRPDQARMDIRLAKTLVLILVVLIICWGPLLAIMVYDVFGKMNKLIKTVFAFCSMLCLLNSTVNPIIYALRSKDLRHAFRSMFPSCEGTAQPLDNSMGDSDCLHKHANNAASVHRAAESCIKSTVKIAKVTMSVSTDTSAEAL
For the next data set, the target named is Human CB2 (Homo sapiens, UniProt P34972). The data set is described as above. The data set is classed as biochemical. Also noted: expressed in transfected cells; host or cells: CHO cells (membrane extracts).
Human CB2, sequence (P34972 whole entry): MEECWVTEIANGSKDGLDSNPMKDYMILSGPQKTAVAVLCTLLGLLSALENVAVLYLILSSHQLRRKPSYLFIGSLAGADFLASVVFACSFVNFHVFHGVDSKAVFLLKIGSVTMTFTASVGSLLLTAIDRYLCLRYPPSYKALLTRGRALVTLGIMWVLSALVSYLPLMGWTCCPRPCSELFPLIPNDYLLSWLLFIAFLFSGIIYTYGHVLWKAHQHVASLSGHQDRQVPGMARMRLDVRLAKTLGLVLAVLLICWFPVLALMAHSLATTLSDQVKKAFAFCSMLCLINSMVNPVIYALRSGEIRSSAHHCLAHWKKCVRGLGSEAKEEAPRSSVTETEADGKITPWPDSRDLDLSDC
In the next data set the test system is locomotor activity. Put plainly: Open-field test. The data set is classed as in vivo, mice. As to conditions: 1 mg/kg i.p., 30 minutes before the experiment; data not shown. The source says:
We then delivered NMP-7 via the intrperitoneal route.

The mark [1] stands for this setting: 1 mg/kg i.p., 30 min before behavioural assessment.
Setting [2] is: i.t., 10 min prior, NMP-4 1-10 μg/i.t., NMP-144 0.1-1 μg/i.t., NMP-7 3-30 μg/i.t., mice.

Consider 1 compound from PMC3250956, “Functional characterization and analgesic effects of mixed cannabinoid receptor/T-type channel ligands” (Molecular Pain, 2011).

By EC50 is commonly meant the concentration needed to bring the measured effect to its halfway point. Broadly, the Emax is the size of the effect at its maximum, as opposed to the concentration needed.

Procedure for Human CB1: Functional activity was evaluated using GTPγ[^35S] assay in CHO cell membrane extracts expressing recombinant human CB1 or CB2 receptors as we previously described [51]. Compounds were solubilized in 100% DMSO at a concentration of 10 mM within 4 hours of the first testing session. A predilution for the dose response curve was performed in 100% DMSO and then diluted 100 fold in assay buffer at a concentration 2 fold higher than the concentration to be tested. […] Membranes were mixed with GDP diluted in assay buffer to give 30 μM solution (volume:volume) and incubated for at least 15 min on ice. In parallel, GTPγ[^35S] (GE Healthcare, Catalogue number SJ1308) were mixed with the beads (PVT-WGA (GE Healthcare, RPNQ001)), diluted in assay buffer at 50 mg/ml (0.5 mg/10 μl) (volume:volume) just before starting the reaction. The following reagents were successively added in the wells of an Optiplate (Perkin Elmer): 50 μl of ligand, 20 μl of the membranes:GDP mix, 10 μl of assay buffer for agonist testing, and 20 μl of the GTPγ[^35S]:beads mix. The plates were covered with a topseal, shacked on an orbital shaker for 2 min, and then incubated for 1 hour at room temperature. Then the plates were centrifuged for 10 min at 2000 rpm and counted for 1 min/well with a PerkinElmer TopCount reader. […] For replicate determinations, the maximum variability tolerated in the test was of ± 20% around the average of the replicates.

For the compound `CCCCCn1c2ccccc2c2cc(C(=O)N3CCCCC3)ccc21` [NMP-7], in the data set with formalin-induced pain (setting [1]), the “inhibition of the pain responses in phase 1” value is reported as 92 ± 7% and the “inhibition of the pain responses in phase 2” value is given as 94 ± 6%. In addition, in the data set on formalin-induced pain (i.pl., co-injected with formalin, NMP-4 and NMP-144 0.03-3 μg/paw, NMP-7 0.3-3 μg/i.pl.), the “effect on first phase of formalin-induced nociception” value is on record as “able to inhibit the first phase”. Moreover, in the data set on formalin-induced pain (setting [2]), the “reduction of pain response time, first (neurogenic) phase” value is “significant inhibition” and the “reduction of pain response time, second (inflammatory) phase” value is recorded as “significant inhibition”. Further, the “hyperpolarizing shift in the half inactivation potential of Cav3.2 channels” value at Cav3.2 was determined as 13 mV. Further, at Cav3.2 (n = 4), the “half-inactivation potential after treatment with drug” value is -63.3 ± 3.5 mV. Also, the EC50 at Human CB1 came out at 96.9 ± 11.9 nM. Also, the Emax on Human CB1 (read-out: GTPγ[35S] functional assays Human CB1 Emax) is 73.6%. The EC50 at Human CB2 was found to be 10.5 ± 1.8 nM. At Human CB2 (read-out: GTPγ[35S] functional assays Human CB2 Emax), the Emax stood at 30.8%. Also, the “locomotor activity in the open-field test” value in the data set with locomotor activity is “did not alter locomotor activity”.
